Here are results for 15 molecules from patent US9957251B2 (Takeda Pharmaceutical Company Limited, priority 2014, dated 2018).

Where a name gives a salt, the structure may show the parent alone.

The term inhibition denotes the relative decrease from the control value, in per cent.

Test [1] has as its system human multiple myeloma RPMI8226 cells. Description: Inhibitory activity against human multiple myeloma RPMI8226 cell growth (CellTiter-Glo). It counts as cell-based. As to conditions: 1 μM of the test compound, cultured for 8 days; for inhibition at 1 µM: Homo sapiens, RPMI-8226, 192 h, read-out: Percent inhibition of RPMI8226 cell growth (%); for Percent inhibition of RPMI8226 cell growth (%): 1 µM. The gist of the method:
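RPMI8226 cells (300/well) cultured 1 day at 37 °C, 5% CO2, then given compound at 1 μM for 8 days. ATP luminescence (CellTiter-Glo) read; percent inhibition relative to 0.1% DMSO wells.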

For test [2], the system named is SW480 human colorectal cancer cells. Description: Antitumor efficacy in mice bearing SW480 human colorectal cancer xenograft. As to conditions: Mus musculus, SW480, 336 h, oral, 1 dose per day, 14 days, percent tumor growth relative to control group, read-out: T/C (%). The class given is in vivo, BALB/c female nude mice. How it is done:
The compound of the present invention was evaluated for its antitumor efficacy in mice bearing cancer derived from SW480 human colorectal cancer cells by the following method.
SW480 human colorectal cancer cells were transplanted into 6- to 7-week-old BALB/c female nude mice (CLEA Japan) by subcutaneous injection of 2.0×10^6 cells per mouse. At 7 to 14 days after the transplantation, the size of the engrafted tumor was measured, and the tumor volume was calculated according to the following formula. Tumor volume=major axis×minor axis×minor axis×(½)
Test subjects having an engrafted tumor with a tumor volume of approximately 100 mm^3 were selected and used in the experiment (6 subjects per group). A suspension of each test compound in a 0.5% methylcellulose solution (Wako Pure Chemical Industries) was orally administered to the mice for 14 days at the dose (mg/kg body weight, indicating the amount per dose) and the number of doses shown in Table 4. On the day before the start of the administration and the day before the completion of the administration, the tumor size was measured, and the tumor volume was calculated.
Percent tumor growth (T/C (%)) of the test compound administration group relative to the control administration group was calculated according to the following formula. T/C(%)=(tumor volume of the test compound administration group after the completion of the administration−tumor volume of the test compound administration group at the day before the start of the administration)/(tumor volume of the control administration group after the completion of the administration−tumor volume of the control administration group at the day before the start of the administration))×100

The target of another test is T1, CDK8/CycC (Homo sapiens, UniProt P49336).
T1 construct: purchased Carna Biosciences
Description: CDK8 inhibitory activity (TR-FRET, Kinase Tracer-236 displacement). Conditions: 1 μM of the test compound; for inhibition at 1 µM: read-out: Percent inhibition of CDK8 activity (%); for Percent inhibition of CDK8 activity (%): 1 µM. The class given is binding. The gist of the method:
(§1)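 Binding assay measuring displacement of Kinase Tracer-236 (60 nM in the added mix) by compound, using Eu-cryptate anti-GST antibody with CDK8/CycC (84 ng/mL) or CDC2L6/CycC (87 ng/mL) solutions. After 1 h at room temperature, TR-FRET read at 615 and 665 nm (excitation 320 nm).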

Another test concerns the target T2, CDK19 (CDC2L6/CycC) (Homo sapiens, UniProt Q9BWU1).
T2 construct: purchased Carna Biosciences
Description: CDK19 inhibitory activity (TR-FRET, Kinase Tracer-236 displacement). It counts as binding. Conditions: 1 μM of the test compound; for inhibition at 1 µM: read-out: Percent inhibition of CDK19 activity (%); for Percent inhibition of CDK19 activity (%): 1 µM. The gist of the method: as §1
Background: TR-FRET usually uses a lanthanide donor and a delayed reading to cut background.

T2 sequence (Q9BWU1 whole entry): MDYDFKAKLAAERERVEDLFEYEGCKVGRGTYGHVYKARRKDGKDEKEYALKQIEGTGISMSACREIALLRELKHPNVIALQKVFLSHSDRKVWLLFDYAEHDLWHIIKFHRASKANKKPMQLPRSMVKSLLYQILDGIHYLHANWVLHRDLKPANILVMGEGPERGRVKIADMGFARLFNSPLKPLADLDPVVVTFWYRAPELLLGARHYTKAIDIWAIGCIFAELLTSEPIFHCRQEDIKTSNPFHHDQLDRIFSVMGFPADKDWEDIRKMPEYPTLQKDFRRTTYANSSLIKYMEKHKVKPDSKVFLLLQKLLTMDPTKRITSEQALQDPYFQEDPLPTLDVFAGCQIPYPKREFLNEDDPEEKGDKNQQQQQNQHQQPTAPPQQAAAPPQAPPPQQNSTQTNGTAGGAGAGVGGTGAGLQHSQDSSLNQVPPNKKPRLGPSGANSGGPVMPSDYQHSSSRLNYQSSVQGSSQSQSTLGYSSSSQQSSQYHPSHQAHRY
T2 sequence (P24863 whole entry partner): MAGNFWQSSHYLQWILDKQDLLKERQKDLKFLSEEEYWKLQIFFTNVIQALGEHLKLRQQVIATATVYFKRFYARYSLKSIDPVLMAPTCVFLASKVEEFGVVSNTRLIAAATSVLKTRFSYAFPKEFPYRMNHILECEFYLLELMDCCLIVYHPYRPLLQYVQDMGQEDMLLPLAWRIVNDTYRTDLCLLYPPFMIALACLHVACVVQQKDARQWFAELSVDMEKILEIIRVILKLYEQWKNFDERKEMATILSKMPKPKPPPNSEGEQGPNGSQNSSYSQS
T1 sequence (P49336 whole entry): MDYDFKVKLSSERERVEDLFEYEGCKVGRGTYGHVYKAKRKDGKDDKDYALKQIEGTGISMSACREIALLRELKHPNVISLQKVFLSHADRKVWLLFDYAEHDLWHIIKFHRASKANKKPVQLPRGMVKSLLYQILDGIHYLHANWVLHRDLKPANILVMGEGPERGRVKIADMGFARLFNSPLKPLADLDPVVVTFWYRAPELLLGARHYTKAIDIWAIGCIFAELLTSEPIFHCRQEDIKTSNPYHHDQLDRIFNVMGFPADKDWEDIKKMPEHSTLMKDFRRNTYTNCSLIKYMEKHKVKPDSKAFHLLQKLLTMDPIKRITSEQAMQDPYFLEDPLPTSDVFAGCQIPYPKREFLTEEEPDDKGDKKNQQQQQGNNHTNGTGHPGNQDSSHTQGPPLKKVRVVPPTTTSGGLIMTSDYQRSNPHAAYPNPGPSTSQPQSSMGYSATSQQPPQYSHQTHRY
T1 sequence (P24863 whole entry partner): as the sequence (P24863 whole entry partner) above

Regarding `O=C(/C=C/c1cnccc1-c1cnn(C2CC2)c1)Nc1ccc(CN2CCOCC2)cc1` [Example 97, (2E)-3-(4-(1-Cyclopropyl-1H-pyrazol-4-yl)pyridin-3-yl)-N-(4-(morpholin-4-ylmethyl)phenyl)acrylamide], the inhibition at 1 µM was 53% in test [1], 92% on CDK8/CycC and 102% at CDK19 (CDC2L6/CycC). Besides, the response vs control in vivo at 50 mg/kg in test [2] came to 37%.
The corresponding values for `O=C(/C=C/c1cnccc1-c1cnn(C2CC2)c1)Nc1ccc(CN2CCOCC2)cc1F` [Example 194, (2E)-3-(4-(1-Cyclopropyl-1H-pyrazol-4-yl)pyridin-3-yl)-N-(2-fluoro-4-(morpholin-4-ylmethyl)phenyl)acrylamide] are 53%, 99%, 99% and 36%.
The corresponding values for `Cn1cc(-c2ccncc2/C=C/C(=O)Nc2ccc3c(c2)CN(CC(F)(F)F)CC3)cn1` [Example 216, (2E)-3-(4-(1-Methyl-1H-pyrazol-4-yl)pyridin-3-yl)-N-(2-(2,2,2-trifluoroethyl)-1,2,3,4-tetrahydroisoquinolin-7-yl)acrylamide] are 59%, 102%, 100% and 43%.
The corresponding values for `O=C(/C=C/c1cncc(F)c1-c1cnn(C2CC2)c1)Nc1ccc(CN2CCOCC2)cc1F` [Example 273, (2E)-3-(4-(1-Cyclopropyl-1H-pyrazol-4-yl)-5-fluoropyridin-3-yl)-N-(2-fluoro-4-(morpholin-4-ylmethyl)phenyl)acrylamide] are 64%, 101%, 96% and 36%.
As to `Cn1cc(-c2ccncc2/C=C/C(=O)Nc2ccc3c(c2)CN(CC(F)(F)F)C3)cn1` [Example 289, (2E)-3-(4-(1-Methyl-1H-pyrazol-4-yl)pyridin-3-yl)-N-(2-(2,2,2-trifluoroethyl)-2,3-dihydro-1H-isoindol-5-yl)acrylamide], the inhibition at 1 µM in test [1] was determined as 64%; at CDK8/CycC, 98%; at CDK19 (CDC2L6/CycC) it was 102%. In addition, the response vs control in vivo at 50 mg/kg in test [2] came out at 31%.
Turning to `O=C(/C=C/c1cnccc1-c1cnn(C2CC2)c1)Nc1ccc(CN2CC(F)(F)C2)cc1` [Example 309, (2E)-3-(4-(1-Cyclopropyl-1H-pyrazol-4-yl)pyridin-3-yl)-N-(4-((3,3-difluoroazetidin-1-yl)methyl)phenyl)acrylamide], the inhibition at 1 µM in test [1] amounted to 58%; on CDK8/CycC, 105%; at CDK19 (CDC2L6/CycC), 101%. Further, in test [2], the response vs control in vivo at 30 mg/kg worked out at 51%.
The corresponding values for `O=C(/C=C/c1cncc(F)c1-c1cnn(C2CC2)c1)Nc1ccc2c(c1)CN(CC(F)(F)F)C2` [Example 324, (2E)-3-(4-(1-Cyclopropyl-1H-pyrazol-4-yl)-5-fluoropyridin-3-yl)-N-(2-(2,2,2-trifluoroethyl)-2,3-dihydro-1H-isoindol-5-yl)acrylamide] are 58%, 104%, 100% and 29%.
The corresponding values for `Cn1cc(-c2c(F)cncc2/C=C/C(=O)Nc2ccc(CN3CC(F)(F)C3)cc2)cn1` [Example 359, (2E)-N-(4-((3,3-Difluoroazetidin-1-yl)methyl)phenyl)-3-(5-fluoro-4-(1-methyl-1H-pyrazol-4-yl)pyridin-3-yl)acrylamide] are 65%, 103%, 102% and 36%.
As for `O=C(/C=C/c1cnccc1-c1cnn(C2CC2)c1)Nc1ccc(CN2CC(F)C2)cc1` [Example 365, (2E)-3-(4-(1-Cyclopropyl-1H-pyrazol-4-yl)pyridin-3-yl)-N-(4-((3-fluoroazetidin-1-yl)methyl)phenyl)acrylamide], the inhibition at 1 µM was found to be 58% in test [1], 107% at CDK8/CycC and 99% on CDK19 (CDC2L6/CycC).
The corresponding values for `O=C(/C=C/c1cnccc1-c1cnn(C2CC2)c1)Nc1ccc(CN2CC(F)(F)C2)cc1F` [Example 370, (2E)-3-(4-(1-cyclopropyl-1H-pyrazol-4-yl)pyridin-3-yl)-N-(4-((3,3-difluoroazetidin-1-yl)methyl)-2-fluorophenyl)acrylamide] are 51%, 105% and 74%.
In the case of `O=C(/C=C/c1cnccc1-c1cnn(C2CC2)c1)Nc1ccc(CN2CC(F)(F)C2)cc1` [Example 373, (2E)-3-(4-(1-Cyclopropyl-1H-pyrazol-4-yl)pyridin-3-yl)-N-(4-((3,3-difluoroazetidin-1-yl)methyl)phenyl)acrylamide sulfate], the “Percent inhibition of RPMI8226 cell growth (%)” value in test [1] (sulfate) was 70%. In addition, on CDK8/CycC (sulfate), the “Percent inhibition of CDK8 activity (%)” value turned out to be 101%. Further, at CDK19 (CDC2L6/CycC) (sulfate), the “Percent inhibition of CDK19 activity (%)” value came to 101%.
On to `O=C(/C=C/c1cnccc1-c1cnn(C2CC2)c1)Nc1ccc(CN2CC(F)(F)C2)cc1` [Example 374, (2E)-3-(4-(1-Cyclopropyl-1H-pyrazol-4-yl)pyridin-3-yl)-N-(4-((3,3-difluoroazetidin-1-yl)methyl)phenyl)acrylamide diphosphate], for which, in test [1], the “Percent inhibition of RPMI8226 cell growth (%)” value came to 69%. In addition, at CDK8/CycC, the “Percent inhibition of CDK8 activity (%)” value is listed as 100%. Further, the “Percent inhibition of CDK19 activity (%)” value at CDK19 (CDC2L6/CycC) amounted to 100%.
With `O=C(/C=C/c1cnccc1-c1cnn(C2CC2)c1)Nc1ccc(CN2CC(F)(F)C2)cc1` [Example 375, (2E)-3-(4-(1-Cyclopropyl-1H-pyrazol-4-yl)pyridin-3-yl)-N-(4-((3,3-difluoroazetidin-1-yl)methyl)phenyl)acrylamide methanesulfonate], the “Percent inhibition of RPMI8226 cell growth (%)” value in test [1] (methanesulfonate) is on record as 70%. Besides, the “Percent inhibition of CDK8 activity (%)” value on CDK8/CycC (methanesulfonate) came out at 102%. Also, the “Percent inhibition of CDK19 activity (%)” value at CDK19 (CDC2L6/CycC) (methanesulfonate) was 101%.
On to `O=C(/C=C/c1cnccc1-c1cnn(C2CC2)c1)Nc1ccc(CN2CC(F)(F)C2)cc1` [Example 376, (2E)-3-(4-(1-Cyclopropyl-1H-pyrazol-4-yl)pyridin-3-yl)-N-(4-((3,3-difluoroazetidin-1-yl)methyl)phenyl)acrylamide hemifumarate], for which, in test [1], the “Percent inhibition of RPMI8226 cell growth (%)” value is 70%. Also, the “Percent inhibition of CDK8 activity (%)” value at CDK8/CycC stood at 99%. In addition, on CDK19 (CDC2L6/CycC), the “Percent inhibition of CDK19 activity (%)” value is given as 100%.
The corresponding values for `O=C(/C=C/c1cnccc1-c1cnn(C2CC2)c1)Nc1ccc(CN2CC(F)(F)C2)cc1` [Example 377, (2E)-3-(4-(1-Cyclopropyl-1H-pyrazol-4-yl)pyridin-3-yl)-N-(4-((3,3-difluoroazetidin-1-yl)methyl)phenyl)acrylamide hemisuccinate] are 66%, 102% and 100%.
